Measured values taken from PubChem BioAssay (NCI).
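All cell lines were grown in 96-well plates and treated with compound for 48 hours. At the TGI there is no net growth.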

How the values were obtained:
Assay in all cases: growth of human tumour cells (NCI), 48 h
COLO 205 colon = test system: COLO 205 colon
DMS 114 small cell lung = test system: DMS 114 small cell lung
DMS 273 small cell lung = test system: DMS 273 small cell lung
IGROV1 ovarian = test system: IGROV1 ovarian
LXFL 529 NSCLC = test system: LXFL 529 NSCLC
M14 melanoma = test system: M14 melanoma
M19-MEL melanoma = test system: M19-MEL melanoma
SF-295 CNS = test system: SF-295 CNS
SF-539 CNS = test system: SF-539 CNS
CCRF-CEM leukemia = test system: CCRF-CEM leukemia
SK-OV-3 ovarian = test system: SK-OV-3 ovarian
MCF7 breast = test system: MCF7 breast

| Compound | TGI (COLO 205 colon) [µM] | TGI (DMS 114 small cell lung) [µM] | TGI (DMS 273 small cell lung) [µM] | TGI (IGROV1 ovarian) [µM] | TGI (LXFL 529 NSCLC) [µM] | TGI (M14 melanoma) [µM] | TGI (M19-MEL melanoma) [µM] | TGI (SF-295 CNS) [µM] | TGI (SF-539 CNS) [µM] | TGI (CCRF-CEM leukemia) [µM] | TGI (SK-OV-3 ovarian) [µM] | TGI (MCF7 breast) [µM] |
| --- | --- | --- | --- | --- | --- | --- | --- | --- | --- | --- | --- | --- |
| Cc1cc(C=O)c2c(=O)c3c(O)ccc(/C=C/C(C)C)c3oc2c1 | > 100 | > 100 | > 100 | > 100 | > 100 | > 100 | > 100 | > 100 | > 100 | – | – | – |
| COC(=O)N/N=c1\cc(C(=O)Nc2ccc(C)c(C)c2)oc2cc(O)ccc12 | > 100 | > 100 | > 100 | > 100 | > 100 | > 100 | > 100 | > 100 | > 100 | > 100 | > 100 | – |
| CCOc1ccc(OP2(=O)NC(=O)C=C(C)N2)cc1 (configuration not stated) | > 100 | > 100 | > 100 | > 100 | > 100 | > 100 | > 100 | > 100 | > 100 | > 100 | > 100 | – |
| CCN(CC)c1ccc(Cl)c2c1C(O)(C(C)C)C2(C)C (configuration not stated) | 28.9 | 36.5 | 29.5 | 27.8 | 31.5 | 30.5 | 29.4 | 33 | 34.2 | 39.9 | 29.3 | – |
| CC(=O)Nc1ccc2c(c1)C(=O)c1ccccc1-2 | > 100 | > 100 | > 100 | > 100 | > 100 | > 100 | > 100 | > 100 | > 100 | > 100 | > 100 | – |
| COc1cc(S(=O)(=O)Nc2nc(-c3ccc(N=Cc4ccccc4O)cc3)cs2)ccc1Cl | 61.8 | – | – | > 100 | – | > 100 | – | > 100 | > 100 | > 100 | > 100 | > 100 |
| CC1=C(C(=O)NNC(=O)C[N+](C)(C)C)CC(C(=O)NNC(=O)C[N+](C)(C)C)=C(C)N1 | > 100 | – | – | > 100 | – | > 100 | – | > 100 | > 100 | 94 | > 100 | > 100 |
| CCc1nc(N)nc(N)c1-c1ccc(N2CCOCC2)c(N=[N+]=[N-])c1 | > 100 | – | – | > 100 | – | > 100 | – | > 100 | > 100 | > 100 | > 100 | > 100 |
| C[C@H]1CCC/C=C/[C@@H]2C[C@H](OC(=O)CN(C)C)C[C@H]2[C@H](O)/C=C/C(=O)O1 | 0.0997 | – | – | > 29.7 | – | > 19.9 | – | > 100 | > 48.2 | > 100 | > 100 | 4.31 |
| CCCCCC(=O)OC[n+]1cccc(-c2c(COC(=O)NC(C)C)c(COC(=O)NC(C)C)c3n2CCC3)c1 | > 100 | – | – | > 100 | – | > 100 | – | > 100 | > 72.5 | > 61 | > 100 | > 100 |
| O=C1C(Cl)=CC2(C=C1Cl)CCN=c1c(O)c3c(c(O)c12)=NC=N3 | 46.7 | – | – | > 100 | – | > 100 | – | > 100 | 88.4 | > 100 | > 100 | 48.9 |
| Cc1ccc2c(=O)cc(-c3cc(C)sc3C)[nH]c2n1 | 7.52 | – | – | > 100 | – | > 100 | – | 7.54 | 6.25 | > 25.5 | > 82.7 | > 100 |
| Cc1cc2nnn(C3CCCCO3)c2cc1C (configuration not stated) | > 100 | – | – | > 100 | – | > 100 | – | > 100 | > 100 | > 100 | > 100 | > 100 |
